Measured values as given in patent publication US9949979B2, “Use of inhibitors of the activity or function of PI3K” (NOVARTIS AG, priority 2011, dated 2018).

System: isolated human pDCs
Experiment: P. falciparum nuclear extract-induced IFNα production in human pDCs
Assay type: cell-based
Conditions: for IFNα level: nuclear extract
Method: Human PBMCs were prepared using Buffy Coats as source material from healthy donations (approx. 50 ml obtained from Blutspendezentrum SRK Basel) and processed as indicated above. Fresh PBMCs were resuspended and diluted in RoboSep™ buffer (PBS containing 2% v/v FBS, 1 mM EDTA (Gibco #15575-038) to obtain a final concentration of 50×10^6 PBMCs/ml. Human pDCs (negative selection) were isolated using plasmacytoid DC Enrichment kit (Stemcell, #19062) using an automation RobSep™ station as described according to manufacturer protocols. Typical pDC yields were approx. 0.1% of total PBMCs and with a purity>90%. Isolated pDCs were diluted to 4×10^5 cells/ml and seeded in 384-well plates (#353962; Becton Dickinson AG) to give a final volume of 25 μl (i.e. 1×10^4 cells/well). For stimulation using malaria nuclear extact (see below), pDCs were seeded at a final concentration of 5×10^4 cells/well.
The preparation of the nuclear extract of plasmodium falciparum was performed according to Gowda et al [Gowda et al. “The Nucleosome (Histone-DNA Complex) Is the TLR9-Specific Immunostimulatory Component of Plasmodium falciparum That Activates DCs”, PLoS ONE 2011]. In brief, Plasmodium falciparum 3D7 parasites were cultured in human red blood cell at 2% hematocrit. When the parasite was at late trophozoite and schizont stages, the infected red blood cells (IRBCs) were harvested by centrifugation and the pellets were re-suspended in 20 volumes of 0.1% saponin (m/v) in PBS, pH 7.2. The re-suspension was incubated on ice for 10 minutes and centrifuged at 2,500 g at 4° C. for 15 min. The pellet was re-suspended in the above solution, incubated on ice for 10 min and centrifuged at 2,500 g at 4° C. for 15 min. The parasite pellet thus obtained was washed 3 times with cold PBS, pH 7.2, by centrifugation. Each time 35 ml of cold PBS was used. The pellet obtained after the last centrifugation was suspended in 10 volumes of lysis buffer (20 mM HEPES, pH 7.5, 10 mM KCl, 1 mM EDTA, 1 mM dithiothreitol, 1 mM phenylmethylsulfonyl fluoride (PMSF) and 1% Triton X-100) and incubated on ice for 5 min. The suspension was centrifuged at 5,000 g at 4° C. for 10 min, and nuclear material was washed three times with the lysis buffer to remove membrane components. The nuclear material was re-suspended in PBS, pH 7.2. Insoluble material was subsequently solubilized by using a water-bath sonicator.
Compounds were pre-diluted in 100% v/v DMSO (#41640-100 mL; Sigma-Aldrich), followed by transfer in Media (to achieve a final DMSO concentration of 0.25%). Cells were treated with appropriate compound dilution (5 μl) or vehicle control (5 μl) and incubated for 30 min at 37° C. in a humidified incubator in air with 5% (v/v) CO2. Cells were stimulated with CpG2216 (0.3 μM; #tlrl-hodna; Invivogen), malaria nuclear extract (2.5 μg/ml; see above for preparation) or vehicle control (10 μl/well) and incubated for 20 h. Plates were briefly centrifuged (200×g for 2 min at 22° C.) and supernatant samples (30 μl) removed for quantification of IFNα levels.
For quantification of IFNalpha the human interferon AlphaLISA Kit (#AL264F) from PerkinElmer was used. An antibody mix containing anti-IFNα acceptor beads (5 μg/ml final) and biotinylated antibody anti-IFNα(0.5 nM final) is prepared fresh and dispensed (5 μl) into 384-well Optiplates™ (#6007299; PerkinElmer). Dilution of known IFNα standards (human IFNα B (2b)) were prepared and together with cell supernatants (5 μl) were added to plates above. Plates were briefly centrifuged (pulse at 200 g), covered with adhesive sealing film, vortexed and incubated 1 h at room temperature in the dark. Streptavidin-coated donor beads (20 μg/ml final) was prepared and added to each well (5 μl) in a dark lit area (light sensitive mix). Plates were incubated 30 min at room temperature (Plates must not be centrifuged or covered). […]

## CCC(=O)N1CC[C@H](Nc2ncnc3c2CN(c2cnc(OC)c(C(F)(F)F)c2)CC3)C1 [Example 67, 1-{(S)-3-[6-(6-Methoxy-5-trifluoromethyl-pyridin-3-yl)-5,6,7,8-tetrahydro-pyrido[4,3-d]pyrimidin-4-ylamino]-pyrrolidin-1-yl}-propan-1-one]
Compound 0.01 μM, read-out: % inh. of IFNα by nuclear extract
  inhibition at 0.01 µM: 25%
Compound 0.1 μM, read-out: % inh. of IFNα by nuclear extract
  inhibition at 0.1 µM: 64%
Compound 1 μM, read-out: % inh. of IFNα by nuclear extract
  inhibition at 1 µM: 77%
Compound 0.01 μM
  IFNα level: 4084 pg/mL
Compound 0.1 μM
  IFNα level: 2110 pg/mL
Compound 1 μM
  IFNα level: 1483 pg/mL
